Results: article PMC2435557, “Developing and applying a gene functional association network for anti-angiogenic kinase inhibitor activity assessment in an angiogenesis co-culture model” (BMC Genomics, 2008)
Entries after “also recorded” stand apart in the source; their conditions may differ.

How the values were obtained:
[1] = test system: HUVEC cord formation in co-culture with NHDF; assay: HUVEC/NHDF cord formation co-culture assay (in vitro angiogenesis, high content imaging); type: cell-based, human; settings: for EC50: Homo sapiens, cord area normalized to control group, mean of two to four independent experiments, sigmoidal dose-response fit, read-out: observed EC50 of cord formation inhibition (cord area)
Description: In vitro HUVEC cord formation co-culture was performed using the AngioKit commercially available from TCScellworks (Buckingham, UK) adapted to a 24-well format. To test HUVEC and NHDF passage dependence effects, the co-culture was done in house adapted to a 96-well format. Briefly, HUVEC cells were co-cultured onto human dermal fibroblast feeder layers in Optimised medium (TCScellworks, Buckingham, UK) for a total of about 12 days. Treatment started the day when the plates were received; usually three to four days after initial plating. Medium with or without growth factors or compounds was replenished every 2 to 3 days. Cells were fixed with 70% cold ethanol at the end of the culture and processed for anti-CD31/Alexa 488 immunofluorescence. To visualize feeder layer fibroblasts, some cultures were stained using a polyclonal antibody against Vimentin (Abcam, Cambridge, Massachusetts) along with an Alexa 568 conjugated secondary antibody to examine the feeder cell integrity. Nuclear staining was performed using Hoechst staining (Invitrogen Molecular Probe, Carlsbad, California).
Immunofluorescence stained co-culture plates were scanned using ArrayScan VTI (Cellomics, Pittsburgh, Pennsylvania) and the multi-parameter tube formation Bioapplication was used for quantification. Morphological measurements included cord length, width, area, percent connected cord, branching node and segment count, nuclei per cord, angiogenic index (expressed as the percentage of area covered by connected tube), etc. General cytotoxicity was monitored by examination of the nuclear staining of the feed layers.

[2] = design: method as in PMID 15919970; settings: cited from earlier work

O=C(Cc1ccc(-c2cnc3cc(-c4ccncc4)ccn23)cc1)Nc1cccc(C(F)(F)F)c1 [LY2401401]
EC50 [1]: 9.2 nM

Clc1ccc(Nc2nnc(Cc3ccncc3)c3ccccc23)cc1 [PTK787]
EC50 [1]: 140 nM | outcome in clinical trials [2]: failed to achieve statistical significance

CCN(CC)CCNC(=O)c1c(C)[nH]c(/C=C2\C(=O)Nc3ccc(F)cc32)c1C [Sunitinib]
effect on cord mass in length and area ([1]; 30 nM): significantly inhibited | number of connected cords, branching nodes, and segment measurements ([1]; 30 nM): all significantly reduced | number of nuclei per tube ([1]; 30 nM): significantly reduced | effect on angiogenesis / cord formation ([1]; 30 nM compound, compared to medium control): significantly inhibited angiogenesis; also recorded: drastically inhibited cord formation | EC50 [1]: 39 nM

VEGF
effect on angiogenesis / cord formation ([1]; 20 ng/ml VEGF added to culture): significantly increased angiogenesis; also recorded: greatly enhanced
